The record followed here is publication PMC6175577, “BRCT domains of the DNA damage checkpoint proteins TOPBP1/Rad4 display distinct specificities for phosphopeptide ligands” (eLife, 2018).

The target in one test is T1, TOPBP1-BRCT4,5 (Homo sapiens, UniProt Q92547).
T1 construct: made in house; host or cells: E. coli BL21(DE3)
The experiment in a line: Fluorescence polarisation titration, TOPBP1-BRCT4,5. The test is classed as binding. Particulars: read-out: Kd. The protocol:
(§1) Fluorescein-labelled peptides (Peptide Protein Research Ltd, Fareham, UK) at a concentration of 200 nM, were incubated at room temperature with increasing concentrations of recombinant protein in 25 mM HEPES pH 7.5, 150 mM NaCl, 1 mM EDTA, 0.25 mM TCEP, 0.02% (v/v) Tween-20. Four parallel replicates of each titration were dispensed into a black 96-well polypropylene plate (VWR, Lutterworth, UK) for measurement. Fluorescence polarisation was measured in a CLARIOstar multimode microplate reader (BMG Labtech, Aylesbury, UK). Binding curves represent the mean of 4 independent experiments, with error bars indicating one standard deviation. All data were fitted by non-linear regression, to a one site-specific binding model in Prism seven for Mac OS X (v 7.0d, GraphPad Software) in order to calculate the reported dissociation constants (Kd). Low-affinity non-specific responses for which a binding curve could not be determined are marked as ND.
In general terms: Fluorescence polarisation rises when a labelled molecule tumbles more slowly, as on binding a larger partner.

For a further test, the target named is T2, TOPBP1-BRCT7,8 (Homo sapiens, UniProt Q92547).
T2 construct: made in house; host or cells: E. coli BL21(DE3)
T2 sequence (Q92547 1264-1493 limits assumed): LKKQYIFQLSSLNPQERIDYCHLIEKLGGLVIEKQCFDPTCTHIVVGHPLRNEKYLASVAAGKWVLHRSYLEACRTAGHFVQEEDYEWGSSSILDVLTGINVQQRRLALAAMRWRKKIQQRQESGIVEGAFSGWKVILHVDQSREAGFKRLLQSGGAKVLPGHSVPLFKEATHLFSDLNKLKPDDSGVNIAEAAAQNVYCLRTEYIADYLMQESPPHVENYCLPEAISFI
Nature of the test: Fluorescence polarisation titration, TOPBP1-BRCT7,8. The test is classed as binding. The procedure:
as §1

Another test addresses T3, Rad4-BRCT3,4 (Schizosaccharomyces pombe, UniProt P32372).
T3 construct: made in house; host or cells: E. coli BL21(DE3)
T3 sequence (P32372 291-494 limits assumed): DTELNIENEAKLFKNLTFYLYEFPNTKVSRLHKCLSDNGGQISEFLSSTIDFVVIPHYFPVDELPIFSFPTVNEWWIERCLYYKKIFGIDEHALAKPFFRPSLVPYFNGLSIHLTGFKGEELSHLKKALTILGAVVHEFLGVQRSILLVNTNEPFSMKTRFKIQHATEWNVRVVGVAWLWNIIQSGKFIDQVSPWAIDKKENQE
Nature of the test: Fluorescence polarisation titration, Rad4-BRCT3,4. Particulars: FP, fluorescein-peptide 200 nM, HEPES pH 7.5, room temperature; ND = low-affinity non-specific response, no binding curve. The protocol:
as §1

The target of the next test is T4, Rad4-BRCT1,2 WT (Schizosaccharomyces pombe, UniProt P32372).
T4 construct: made in house; host or cells: E. coli BL21(DE3)
T4 sequence (P32372 1-186 limits assumed): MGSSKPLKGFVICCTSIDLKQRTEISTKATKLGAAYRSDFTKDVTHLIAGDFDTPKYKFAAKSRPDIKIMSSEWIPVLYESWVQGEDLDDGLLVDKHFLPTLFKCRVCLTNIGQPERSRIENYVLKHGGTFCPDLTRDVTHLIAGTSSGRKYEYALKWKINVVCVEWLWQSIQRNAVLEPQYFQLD
The experiment in a line: Fluorescence polarisation titration, Rad4-BRCT1,2 wild-type. Particulars: FP, fluorescein-peptide 200 nM, HEPES pH 7.5, room temperature, one-site fit, 4 replicates; ND = low-affinity non-specific response, no binding curve. The protocol:
as §1

The target of a further test is T5, SpNbs1 (Schizosaccharomyces pombe, UniProt O43070).
T5 construct: made in house; host or cells: E. coli BL21(DE3)
T5 sequence (O43070 1-613): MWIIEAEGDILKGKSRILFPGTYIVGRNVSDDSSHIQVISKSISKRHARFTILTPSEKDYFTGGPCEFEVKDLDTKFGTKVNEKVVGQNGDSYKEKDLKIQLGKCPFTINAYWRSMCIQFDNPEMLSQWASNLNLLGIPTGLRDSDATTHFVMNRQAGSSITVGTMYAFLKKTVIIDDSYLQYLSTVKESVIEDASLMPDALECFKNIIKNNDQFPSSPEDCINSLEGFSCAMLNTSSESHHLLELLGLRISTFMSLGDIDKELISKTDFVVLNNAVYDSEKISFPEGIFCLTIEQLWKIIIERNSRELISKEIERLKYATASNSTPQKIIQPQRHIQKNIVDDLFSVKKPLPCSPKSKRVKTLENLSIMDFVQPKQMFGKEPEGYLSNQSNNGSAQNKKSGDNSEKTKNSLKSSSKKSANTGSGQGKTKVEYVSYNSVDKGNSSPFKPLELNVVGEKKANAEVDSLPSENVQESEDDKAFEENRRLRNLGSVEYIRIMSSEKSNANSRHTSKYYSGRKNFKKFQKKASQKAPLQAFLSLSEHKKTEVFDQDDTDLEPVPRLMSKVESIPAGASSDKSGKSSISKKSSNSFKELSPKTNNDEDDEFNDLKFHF
Nature of the test: Fluorescence polarisation titration, SpNbs1. The test is classed as binding, S. pombe. To be noted: FP, fluorescein-peptide 200 nM, HEPES pH 7.5, room temperature, one-site fit, 4 replicates. The protocol: as §1

By Kd is commonly meant the concentration at which binding is half-saturated.

The structures appear in SMILES notation. Where a SMILES comes first, the peptide text is derived from it. [ ]: non-standard residue; d: D form. The star is where a group is joined. 5FAM = O=C1OC2(c3ccc(O)cc3Oc3cc(O)ccc32)c2ccc(C(=O)*)cc21; pT = C[C@@H](OP(=O)(O)O)[C@H](N)C(=O)O; pS = N[C@@H](COP(=O)(O)O)C(=O)O

T1 sequence (Q92547 549-746 limits assumed): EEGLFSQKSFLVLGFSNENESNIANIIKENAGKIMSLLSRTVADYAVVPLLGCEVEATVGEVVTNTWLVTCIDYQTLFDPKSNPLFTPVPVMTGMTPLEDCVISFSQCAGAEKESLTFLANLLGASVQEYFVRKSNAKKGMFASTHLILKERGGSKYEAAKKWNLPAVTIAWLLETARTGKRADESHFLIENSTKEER

Turning to `CC[C@H](C)[C@H](NC(=O)[C@H](CCC(=O)O)NC(=O)[C@H](CCC(=O)O)NC(=O)[C@@H]1CCCN1C(=O)[C@H](COP(=O)(O)O)NC(=O)[C@@H]1CCCN1C(=O)[C@@H]1CCCN1C(=O)[C@@H](NC(=O)[C@H](Cc1ccccc1)NC(=O)[C@H](CC(=O)O)NC(=O)[C@@H](NC(=O)[C@H](CC(=O)O)NC(=O)CNC(=O)[C@H](Cc1ccc(O)cc1)NC(=O)CNC(=O)c1ccc2c(c1)C(=O)OC21c2ccc(O)cc2Oc2cc(O)ccc21)[C@@H](C)O)C(C)C)C(=O)N[C@H](C(=O)N[C@@H](CO)C(=O)N[C@@H](C)C(=O)O)[C@@H](C)CC` [BLM pS304, reference compound] (5FAM-GYGDTDFVPP[pS]PEEIISA-OH), the equilibrium dissociation constant (Kd) at TOPBP1-BRCT4,5 came out at 3460 ± 540 nM.
As for `CC[C@H](C)[C@H](NC(=O)[C@H](CO)NC(=O)[C@H](CCC(=O)O)NC(=O)[C@H](CC(=O)O)NC(=O)[C@H](CCC(=O)O)NC(=O)CNC(=O)[C@H](Cc1ccc(O)cc1)NC(=O)CNC(=O)c1ccc2c(c1)C(=O)OC21c2ccc(O)cc2Oc2cc(O)ccc21)C(=O)N[C@@H](Cc1ccc(O)cc1)C(=O)N[C@@H](Cc1ccccc1)C(=O)N[C@H](C(=O)N1CCC[C@H]1C(=O)N[C@@H](CCC(=O)O)C(=O)N[C@@H](CC(C)C)C(=O)N[C@@H](Cc1ccc(O)cc1)C(=O)N[C@@H](CC(=O)O)C(=O)N1CCC[C@H]1C(=O)N[C@@H](CCC(=O)O)C(=O)O)[C@@H](C)OP(=O)(O)O` [FANCJ pT1133, reference compound] (5FAM-GYGEDESIYF[pT]PELYDPE-OH), on TOPBP1-BRCT7,8, the dissociation constant Kd was 140 ± 10 nM.
Consider `CC(C)[C@H](NC(=O)CNC(=O)[C@H](Cc1ccc(O)cc1)NC(=O)CNC(=O)c1ccc2c(c1)C(=O)OC21c2ccc(O)cc2Oc2cc(O)ccc21)C(=O)N[C@@H](CCC(=O)O)C(=O)NCC(=O)N[C@@H](CC(=O)O)C(=O)N[C@@H](Cc1c[nH]cn1)C(=O)N[C@@H](CO)C(=O)N[C@@H](COP(=O)(O)O)C(=O)N[C@@H](CC(=O)O)C(=O)N[C@H](C(=O)N[C@@H](CCC(=O)O)C(=O)N[C@@H](CCC(=O)O)C(=O)N[C@@H](CCC(=O)O)C(=O)N[C@H](C(=O)N[C@H](C(=O)N[C@@H](CO)C(=O)O)C(C)C)C(C)C)[C@@H](C)OP(=O)(O)O` [Mdb1 pS216, pT218] (5FAM-GYGVEGDHS[pS]D[pT]EEEVVS-OH), for which the equilibrium dissociation constant (Kd) result is given as “no binding was observed” on Rad4-BRCT3,4, “no binding was observed” on Rad4-BRCT1,2 WT and “sub-micromolar affinity” at SpNbs1.
